In patent US20250084063A1 (Incyte Corporation, priority 2023, published 2025):
pIC50: −log10 of the molar value.

Tests used:
Format in all cases: cell-based
[1] = molecular target: T1, MRGPRX2 (Homo sapiens, UniProt Q96LB1); test: MRGPRX2 β-Arrestin assay; design: host or cells: PathHunter CHO-K1; details: PathHunter CHO-K1 MRGPRX2 β-Arrestin cell line; agonist Cortistatin 14 0.25 μM
T1 sequence (Q96LB1 1-330): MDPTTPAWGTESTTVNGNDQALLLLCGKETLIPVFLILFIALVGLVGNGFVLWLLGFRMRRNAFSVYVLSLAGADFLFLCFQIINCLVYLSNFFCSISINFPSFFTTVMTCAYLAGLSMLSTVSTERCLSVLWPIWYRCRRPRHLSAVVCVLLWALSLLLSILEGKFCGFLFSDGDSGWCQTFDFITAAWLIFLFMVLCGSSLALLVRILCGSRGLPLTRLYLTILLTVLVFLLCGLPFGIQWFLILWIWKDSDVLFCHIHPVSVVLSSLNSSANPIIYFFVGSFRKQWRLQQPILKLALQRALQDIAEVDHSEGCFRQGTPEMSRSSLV
Text: Example C: MRGPRX2 β-Arrestin Assay
This assay measures compound inhibition of β-Arrestin recruitment, which is part of the G protein-independent pathway that results from the ligand-activated GPCR phosphorylation by specific GPCR kinases. The PathHunter CHO-K1 MRPGRX2 B-Arrestin Cell line stably expressing ProLink tagged MRGPRX2 and Enzyme Acceptor Tagged B-Arrestin was purchased from Eurofins DiscoverX, (Fremont, CA).
The cells were maintained in culture medium from the Europhins DiscoverX Cell Culture Kit-107 which includes FBS, hygromycin B and G418. For the assay, the cells were harvested and were resuspended with Cell Plating Reagent 2 (Eurofins DiscoverX). Cells were added 10000 cells in 25 µL/well to a 384-well black cell culture plate (Greiner VWR, Radnor, PA) which contained 125 nL/well of compound at a selected serially diluted concentration range or DMSO. The plate was incubated at 37° C. with 5% CO2 for 1 h. 2 μL/well of agonist Cortistatin 14 was diluted in Protein Dilution Buffer, (Eurofins DiscoverX) for a final concentration of 0.25 μM, was added and the plate was incubated at 37° C. with 5% CO2 for 90 min. 14 μL/well of Detection Reagent Mix (PathHunter Detection Kit, Eurofins DiscoverX) was added to the plates and further incubated for 1 h in the dark. Plates were read on the PHERAstar microplate reader (BMG Labtech Cary, NC) measuring luminescence 0.1 to 1 second per well. Data was normalized using DMSO only wells and wells with high concentration of reference antagonist as controls. Compound IC50 curves were globally fitted with 3- or 4-parameter Hill equation in a Genedata Screener (Genedata Basel, Switzerland).

[2] = molecular target: T1, MRGPRX2; test: MRGPRX2 IP1 HTRF assay; design: host or cells: CHO-K1; details: CHO-K1 cells stably expressing human MRGPRX2; IP1 accumulation, agonist Cortistatin 14 1 μM
Text: Example B: MRGPRX2 IP1 HTRF Assay
This assay measures compound inhibition of myo-Inositol 1 phosphate (IP1) accumulation in CHO-K1 cells. Chinese hamster ovary (CHO-K1) cells stably expressing human MRGPRX2 were purchased from GenScript (Piscataway, NJ).
For the HTRF IP1 determination, an IP-One GqKit (Perkin Elmer Cisbio, Waltham, MA), which includes all reagents and buffers in this protocol, was used. The cells were maintained in culture medium (Ham's F-12K) containing 10% (v/v) FBS, and 200 μg/mL Zeocin. For the assay, the cells were harvested and resuspended in culture medium with 2% FBS and without Zeocin, then were passed through a 40 μm filter. Cells were added at 20000 cells in a 5 μL/well to a 384-well white small volume cell culture plate (Greiner VWR, Radnor, PA) which contained 50 nL/well of test compound serially diluted at a selected concentration range in DMSO. 5 μL/well of prepared 2× Stimulation Buffer2 was then added to plates and was incubated at 37° C. with 5% CO2 for 1 h. 5 μL/well of agonist Cortistatin 14 (Bio-TechneR&D Systems, Minneapolis, MN) in 1× Stimulation Buffer 2, for a 1 μM final concentration, was then added to plates and incubated at 37° C. with 5% CO2 for 1 h. 6 μL/well of 1:20 diluted Detection Reagent Mix (d2 and Cryptate) was added to the plates and incubated for 1 h in the dark. Plates were read on the PHERAstar microplate reader (BMG Labtech Cary, NC) to determine the HTRF ratio of the acceptor and donor emission signals. The IP1 concentrations were calculated from a standard curve following the IP-One GQ kit instructions. Wells with DMSO only and wells with high concentration of reference antagonist were used as controls for normalization. Compound IC50 curves were globally fitted with 3- or 4-parameter Hill equation in a Genedata Screener (Genedata Basel, Switzerland).

[3] = molecular target: T1, MRGPRX2; test: MRGPRX2 FLIPR calcium mobilization assay; design: host or cells: CHO-K1; details: CHO-K1 cells stably expressing human MRGPRX2; Ca2+ release, agonist Cortistatin-14 at EC80
Procedure: Example A. MRGPRX2 FLIPR Calcium Mobilization Assay
Chinese hamster ovary (CHO-K1) cells stably expressing human MRGPRX2 were purchased from Genescript (Piscataway, NJ). The cells were maintained in culture medium (Ham's F-12K) containing 10% (v/v) FBS, 200 μg/mL Zeocin, 100 units/mL penicillin G and 100 μg/mL streptomycin (Life Technologies, Carlsbad, CA). For the assay, the cells were harvested and resuspended with culture medium without Zeocin before plating at 8000 cells per well in 20 μL in 384-well black clear bottom cell culture plates (VWR, Radnor, PA). After 24 h culture at 37° C. and 5% CO2, the cells were loaded with 20 μL/well of calcium dye (FLIPR Calcium 6 Assay Kit, Molecular Devices, San Jose, CA) diluted in loading buffer (1×Hank's Balanced Salt Solution (HBSS), 5 mM probenecid, 20 mM 4-(2-hydroxyethyl)-1-piperazineethanesulfonic acid (HEPES), pH 7.4, VWR, Radnor, PA) followed with 45 min incubation at 37° C. and 40 min at room temperature in the dark. Cells were then treated with the addition of 10 uL/well test compounds with a range of increasing concentrations diluted in the assay buffer (1×HBSS, 20 mM HEPES, pH 7.4, VWR, Radnor, PA) with FLIPR Penta (Molecular Devices. San Jose, CA) and incubated for 30 min. at room temperature. Ca^2+ release was measured with FLIPR Penta with 10 seconds basal fluorescence measurement, then 12.5 μL of 5× agonist Cortistatin-14 (Tocris, Minneapolis, MN) at final concentration corresponding to the EC80 were added followed with continued fluorescence signal monitoring for an additional 110 seconds. The base line adjusted (median of first 10s base line) max value of the Relative Fluorescence Unit (RFU) was plotted against compound concentrations. Wells with no compound were served as the positive controls, and wells with high concentration of reference antagonist were used as negative controls. IC50 curves were globally fitted with 3- or 4-parameter Hill equation in a Genedata Screener (Genedata Basel, Switzerland).

SMILES | pIC50 [1] | pIC50 [2] | pIC50 [3]
O=C(N[C@H]1C[C@H](O)C1)N1CCC(CNc2cc(C(F)(F)F)nc3ccc(Cl)cc23)(c2ccc(F)cc2)CC1 [Example 86, 4-(((6-Chloro-2-(trifluoromethyl)quinolin-4-yl)amino)methyl)-4-(4-fluorophenyl)-N-((1r,3r)-3-hydroxycyclobutyl) piperidine-1-carboxamide] | 7.00 to 10.00 | 7.00 to 10.00 | 
OC1(C(F)(F)F)CC(CNc2cc(C(F)(F)F)nc3ccc(Cl)cc23)(c2ccccc2)C1 (stereo not drawn) [Example 66, 3-(((6-Chloro-2-(trifluoromethyl)quinolin-4-yl)amino)methyl)-3-phenyl-1-(trifluoromethyl)cyclobutan-1-ol] | 7.00 to 10.00 | 7.00 to 10.00 | 
O=C(O)C1CCC(CNc2cc(C(F)(F)F)nc3ccc(Cl)cc23)(c2ccccc2)CC1 (stereo not drawn) [Example 67, 4-(((6-Chloro-2-(trifluoromethyl)quinolin-4-yl)amino)methyl)-4-phenylcyclohexane-1-carboxylic acid] | 7.00 to 10.00 | 7.00 to 10.00 | 
NS(=O)(=O)N1CC(CNc2cc(C(F)(F)F)nc3ccc(Cl)cc23)(c2nc3cc(F)ccc3s2)C1 [Example 85, 3-(((6-Chloro-2-(trifluoromethyl)quinolin-4-yl)amino)methyl)-3-(5-fluorobenzo[d]thiazol-2-yl)azetidine-1-sulfonamide] | 7.00 to 10.00 |  | 7.00 to 10.00
NC(=O)C1(C(=O)NC2CC(CNc3cc(C(F)(F)F)nc4ccc(Cl)cc34)(c3ccccc3)C2)CC1 (stereo not drawn) [Example 74, N-(3-(((6-Chloro-2-(trifluoromethyl)quinolin-4-yl)amino)methyl)-3-phenylcyclobutyl)cyclopropane-1,1-dicarboxamide] | 7.00 to 10.00 | 7.00 to 10.00 | 
NS(=O)(=O)NC1CC(CNc2cc(C(F)(F)F)nc3ccc(Cl)cc23)(c2ccccc2)C1 (stereo not drawn) [Example 73, N-((3-Aminosulfonylamino-1-phenylcyclobutyl)methyl)-6-chloro-2-(trifluoromethyl)quinolin-4-amine] | 7.00 to 10.00 | 7.00 to 10.00 | 
C[C@]1(O)CC[C@@H](NC(=O)N2CC(CNc3cc(C(F)(F)F)nc4ccc(Cl)cc34)(n3cc(F)cn3)C2)CC1 [Example 89, 3-(((6-Chloro-2-(trifluoromethyl)quinolin-4-yl)amino)methyl)-3-(4-fluoro-1H-pyrazol-1-yl)-N-((1s,4s)-4-hydroxy-4-methylcyclohexyl)azetidine-1-carboxamide] | 7.00 to 10.00 | 7.00 to 10.00 | 
Nc1nc(N2CCC(CNc3cc(C(F)(F)F)nc4ccc(Cl)cc34)(c3ccccc3)CC2)nn1CCN1CCOCC1 [Example 79, N-((1-(5-Amino-1-(2-morpholinoethyl)-1H-1,2,4-triazol-3-yl)-4-phenylpiperidin-4-yl)methyl)-6-chloro-2-(trifluoromethyl)quinolin-4-amine] | 7.00 to 10.00 |  | 7.00 to 10.00
O=C(N[C@H]1CC[C@H](O)CC1)N1CC(CNc2cc(C(F)(F)F)nc3ccc(Cl)cc23)(n2cc(F)cn2)C1 [Example 88, 3-(((6-Chloro-2-(trifluoromethyl)quinolin-4-yl)amino)methyl)-3-(4-fluoro-1H-pyrazol-1-yl)-N-((1r,4r)-4-hydroxycyclohexyl)azetidine-1-carboxamide] | 7.00 to 10.00 | 7.00 to 10.00 | 

Other lines, results leading:

pIC50 [1] | pIC50 [2] | pIC50 [3] | SMILES
7.00 to 10.00 | 7.00 to 10.00 |  | [O-][n+]1ccc(CN2CC(CNc3cc(C(F)(F)F)nc4ccc(Cl)cc34)(c3ccc(F)cc3)C2)cc1 [Example 95, 4-((3-(((6-Chloro-2-(trifluoromethyl)quinolin-4-yl)amino)methyl)-3-(4-fluorophenyl)azetidin-1-yl)methyl)pyridine 1-oxide]
7.00 to 10.00 | 7.00 to 10.00 |  | [2H]C([2H])([2H])NC(=O)N1CC(CNc2cc(C(F)(F)F)nc3ccc(Br)cc23)(n2cc(F)cn2)C1 [Example 97, 3-(((6-Bromo-2-(trifluoromethyl)quinolin-4-yl)amino)methyl)-3-(4-fluoro-1H-pyrazol-1-yl)-N-(methyl-d3)azetidine-1-carboxamide]
7.00 to 10.00 | 7.00 to 10.00 |  | Cc1nc(CN2CC(CNc3cc(C(F)(F)F)nc4ccc(Cl)cc34)(c3ccc(F)cc3)C2)c[nH]1 [Example 94, 6-Chloro-N-((3-(4-fluorophenyl)-1-((2-methyl-1H-imidazol-4-yl)methyl)azetidin-3-yl)methyl)-2-(trifluoromethyl)quinolin-4-amine]
7.00 to 10.00 | 7.00 to 10.00 |  | NC1CC(CNc2cc(C(F)(F)F)nc3ccc(Cl)cc23)(c2ccccc2)C1 (stereo not drawn) [Example 96, N-((3-Amino-1-phenylcyclobutyl)methyl)-6-chloro-2-(trifluoromethyl)quinolin-4-amine]
7.00 to 10.00 | 7.00 to 10.00 |  | O=C(N[C@@H]1CC[C@@H](O)C1)N1CC(CNc2cc(C(F)(F)F)nc3ccc(Cl)cc23)(c2ccc(F)cc2)C1 [Example 90, 3-(((6-Chloro-2-(trifluoromethyl)quinolin-4-yl)amino)methyl)-3-(4-fluorophenyl)-N-((1R,3R)-3-hydroxycyclopentyl)azetidine-1-carboxamide]
7.00 to 10.00 | 7.00 to 10.00 |  | N#C[C@H]1CC[C@H](NC(=O)N2CC(CNc3cc(C(F)(F)F)nc4ccc(Cl)cc34)(c3ccc(F)cc3)C2)CC1 [Example 91, 3-(((6-Chloro-2-(trifluoromethyl)quinolin-4-yl)amino)methyl)-N-((1r,4r)-4-cyanocyclohexyl)-3-(4-fluorophenyl)azetidine-1-carboxamide]
